biological target: S. aureus PhoR (Staphylococcus aureus, UniProt Q2FXN7); test: HK autophosphorylation inhibition, PhoR; type: biochemical; settings: ± SD, n = 2; 10 mM ATP
Protocol: Cytoplasmic domains from S. aureus PhoR and E. coli EnvZ as well the CA domain of Thermotoga maritima CheA were cloned in pNIC28-Bsa4 ([54]) plasmid containing His6-tag expressed in E. coli RIL and purified as previously described ([21], [55], [56]) using His-affinity and size exclusion chromatography. Briefly, E. coli RIL strains carrying the appropriate plasmid were grown in 1 L Luria broth (LB) (Merck Millipore) supplemented with kanamycin (100 µg/mL) with shaking (200 r.p.m.) at 37°C. When OD600 reached 0.5, 1 mM isopropyl-ß-D-1-thiogalactopyranoside (IPTG) was added to induce protein expression and cells were grown for 3 more hours. Cells were harvested by centrifugation (4,000 g, 4°C), resuspended in 40 mL buffer A (50 mM Tris-HCl pH 8.0, 0.5 M NaCl, 10% glycerol, and 1 mM phenylmethanesulfonyl fluoride), sonicated (4°C, 5 min with pulses of 15 sec at intervals of 1 min), and centrifuged (11,000 g, 4°C, 60 min). Supernatant was passed through a 5-mL HisTrap HP column (GE Healthcare) equilibrated in buffer A using the AKTA system (GE Healthcare). His-column was washed with buffer A (80 mL), and a linear gradient of imidazole (range 0 to 0.25 M) in buffer A was applied. The purest fractions evaluated by SDS-PAGE were collected, concentrated by ultrafiltration in a Amicon Ultra-15 (10- or 30-kDa exclusion) (Merck Millipore), and further purified by gel filtration using Superdex 200 column (GE Healthcare), equilibrated in buffer B (50 mM TrisHCl, pH 8.0, 0.2 M NaCl, and 5% glycerol). Purified proteins were then concentrated using ultrafiltration and stored at −80°C.
Autophosphorylation inhibition assays were performed in kinase assay buffer [100 mM Tris-HCl (pH 8.0), 5 mM MgCl2, 10 mM DTT], containing 5 µg of purified HK and 10 mM ATP for 30 min at 25°C. The reaction was stopped by adding gel loading buffer containing 16% SDS before loading the reaction on a 12% SDS-PAGE. […] The phosphorylated histidine was detected by western blotting by then incubating the membrane for 60 min with 1:1,000 anti-N1-phosphohistidine antibody (Merck Millipore) in TBS-T followed by a washing step for 30 min with TBS-T and a final 60-min incubation with 1:10,000 horseradish […] anti-rabbit IgG (Promega) in TBS-T. Chemiluminescent reaction was measured using Pierce ECL immunoblotting substrate (Thermo Scientific) in a LAS 3000 image analyzer (Fujifilm Life Science, Tokyo, Japan) followed by densitometric analysis using Multi Gauge image-analysis software (Fujifilm Life Science, Tokyo, Japan). The inhibitor concentrations required to halve the chemiluminescence intensity (IC50) were determined using Prism 4.1 (GraphPad Software, San Diego, CA, USA).

Chain of S. aureus PhoR (Q2FXN7 entry or part of it): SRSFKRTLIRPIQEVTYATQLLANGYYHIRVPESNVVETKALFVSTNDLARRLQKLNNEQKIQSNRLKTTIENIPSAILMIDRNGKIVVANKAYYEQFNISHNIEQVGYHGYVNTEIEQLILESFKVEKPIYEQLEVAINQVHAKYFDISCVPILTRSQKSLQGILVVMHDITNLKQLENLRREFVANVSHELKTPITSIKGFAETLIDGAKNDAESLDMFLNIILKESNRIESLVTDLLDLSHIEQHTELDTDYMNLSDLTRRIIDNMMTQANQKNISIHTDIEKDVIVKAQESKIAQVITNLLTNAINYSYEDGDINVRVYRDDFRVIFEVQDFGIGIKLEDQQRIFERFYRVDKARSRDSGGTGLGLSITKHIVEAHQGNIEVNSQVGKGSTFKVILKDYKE

| Structure (SMILES) | IC50 |
| --- | --- |
| Oc1ccc(-c2n[nH]c(C(F)(F)F)c2-c2ccc(Cl)cc2)c(O)c1 [DPP-5] | 95 ± 5.6 µM |
| COc1ccc(-c2[nH]nc(C(F)(F)F)c2-c2ccc(Cl)cc2)c(O)c1 [DPP-6] | 55 ± 3.8 µM |
| COc1ccc(-c2c(C(F)(F)F)n[nH]c2-c2ccc(O)cc2O)cc1 [DPP-12] | 328 ± 4.1 µM |
| COc1ccc(-c2c(C(F)(F)F)n[nH]c2-c2ccc(OC)cc2O)cc1 [DPP-13] | 89 ± 6.9 µM |

tested on: sheep red blood cells; test: Haemolysis assay; type: cell-based; settings: if considered to cause haemolysis to red blood cells
Protocol: The hemolysis assay was adapted from the study by Evans et al. ([65]). Briefly, sheep RBC 10% washed pooled cells in PBS (Rockland Immunochemicals, Limerick, PA, USA) were diluted 1:5 to give a final concentration of 2% RBCs in PBS. […] A non-treated control, 1% DMSO (vehicle control), and complete cell lysis control (Triton-X 2%) were included in each assay. After exposure samples were centrifuged at 4°C at 1,000 g for 15 min and 100 µL of supernatant transferred to a clean well in a 96-well, clear, flat-bottom plate (Corning Incorporated). Released hemoglobin was measured by absorption at 540 nm using a Spectramax M5 plate reader. The experiments were performed in quadruplicate. The percentage of hemolysis was calculated as follows:
Hemolysis=A540nm,testcondition−A540nm,DMSOcontrol/A540nm,TritonXControl−A540nm,DMSOcontrol

| Structure (SMILES) | Haemolysis |
| --- | --- |
| COc1ccc(-c2[nH]nc(C(F)(F)F)c2-c2ccccc2)c(O)c1 [DPP-2] | MILD |
| COc1ccc(-c2[nH]nc(C(F)(F)F)c2-c2ccc(Cl)cc2)c(O)c1 [DPP-6] | YES |
| CCOc1ccc(-c2[nH]nc(C(F)(F)F)c2-c2ccc(Cl)cc2)c(O)c1 [DPP-7] | YES |
